# According to US9187429B2, “Phenyl-tetrahydroisoquinoline derivatives” (Hoffmann-La Roche Inc., priority 2012, dated 2015):
# pEC50: −log10 of the molar value.
# What was measured:
# CYP11B2 = CYP11B2 (Homo sapiens (Human), UniProt P19099); assay: G-402 cellular enzyme assay, human CYP11B2 (aldosterone release); format: cell-based; conditions: G-402 cells expressing human CYP11B2, 1 μM Deoxycorticosterone
# Method in brief: (§1)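 G-402 cells stably transfected with human CYP11B2 or CYP11B1, dosed with inhibitor and 1 μM deoxycorticosterone (CYP11B2) or 1 μM deoxycortisol (CYP11B1). Aldosterone or cortisol in supernatant quantified by HTRF; EC50 from 4-parameter MMF fit of steroid level versus inhibitor concentration.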
# human CYP11B1 = human CYP11B1 (Homo sapiens (Human), UniProt P15538); assay: G-402 cellular enzyme assay, human CYP11B1 (cortisol release); format: cell-based; conditions: G-402 cells expressing human CYP11B1, 1 μM Deoxycortisol
# human CYP11B1, sequence (P15538 25-503): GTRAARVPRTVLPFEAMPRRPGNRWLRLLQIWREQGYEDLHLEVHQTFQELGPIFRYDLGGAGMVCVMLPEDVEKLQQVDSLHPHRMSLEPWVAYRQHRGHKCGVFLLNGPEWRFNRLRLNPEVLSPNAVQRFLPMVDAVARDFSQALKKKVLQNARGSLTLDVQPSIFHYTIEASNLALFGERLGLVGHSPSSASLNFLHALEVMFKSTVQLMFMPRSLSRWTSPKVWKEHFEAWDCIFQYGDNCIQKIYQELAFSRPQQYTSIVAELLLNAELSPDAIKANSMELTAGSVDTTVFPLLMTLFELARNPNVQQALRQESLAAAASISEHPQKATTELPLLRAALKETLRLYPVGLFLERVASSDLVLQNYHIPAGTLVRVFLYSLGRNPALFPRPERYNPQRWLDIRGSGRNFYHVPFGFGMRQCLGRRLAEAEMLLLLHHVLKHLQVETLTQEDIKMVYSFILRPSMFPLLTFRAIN
# Method in brief: as §1
# CYP11B2, sequence (P19099 25-503): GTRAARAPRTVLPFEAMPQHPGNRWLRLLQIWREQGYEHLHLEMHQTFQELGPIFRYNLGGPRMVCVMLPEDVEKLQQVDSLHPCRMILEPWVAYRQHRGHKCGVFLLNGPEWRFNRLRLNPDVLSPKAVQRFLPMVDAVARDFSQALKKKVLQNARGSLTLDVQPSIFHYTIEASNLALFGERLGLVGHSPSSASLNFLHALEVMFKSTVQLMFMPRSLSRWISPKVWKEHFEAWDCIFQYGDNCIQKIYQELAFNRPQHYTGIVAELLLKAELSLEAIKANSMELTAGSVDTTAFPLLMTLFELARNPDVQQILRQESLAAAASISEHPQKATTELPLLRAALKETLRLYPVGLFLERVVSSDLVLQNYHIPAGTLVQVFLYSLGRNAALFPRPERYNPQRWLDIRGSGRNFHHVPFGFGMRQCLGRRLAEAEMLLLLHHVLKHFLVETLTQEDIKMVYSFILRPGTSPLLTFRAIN
Compound,pEC50 (CYP11B2),pEC50 (human CYP11B1)
"CCC(=O)NC1CCc2c(-c3ccc(C(F)(F)F)cc3)cncc21 (single isomer, unassigned; (+)) [Example 51, (+)-(R or S)—N-(4-(4-(Trifluoromethyl)phenyl)-6,7-dihydro-5H-cyclopenta[c]pyridin-7-yl)propionamide]",7.60,5.65
"C[C@@H](O)C(=O)NC1CCc2c(-c3ccc(C(F)(F)F)cc3)cncc21 (single isomer, unassigned; (+)) [Example 54, (+)-(R)-2-Hydroxy-N—((R or S)-4-(4-(trifluoromethyl)phenyl)-6,7-dihydro-5H-cyclopenta[c]pyridin-7-yl)propanamide]",7.05,5.50
"CCC(=O)NC1CCc2c(-c3ccc(Cl)c(F)c3)cncc21 (single isomer, unassigned; (+)) [Example 57, (+)-(R or S)—N-(4-(4-Chloro-3-fluorophenyl)-6,7-dihydro-5H-cyclopenta[c]pyridin-7-yl)propionamide]",8.15,6.99
"CCC(=O)NC1CCc2c(-c3ccc(F)c(C)c3)cncc21 (single isomer, unassigned; (+)) [Example 60, (+)-(R or S)—N-(4-(4-Fluoro-3-methylphenyl)-6,7-dihydro-5H-cyclopenta[c]pyridin-7-yl)propionamide]",8.70,7.19
"CCC(=O)NC1CCc2c(-c3ccc(C(F)(F)F)cc3F)cncc21 (single isomer, unassigned; (+)) [Example 63, (+)-(R or S)—N-(4-(2-Fluoro-4-(trifluoromethyl)phenyl)-6,7-dihydro-5H-cyclopenta[c]pyridin-7-yl)propionamide]",7.52,5.76
"CCS(=O)(=O)NC1CCc2c(-c3ccc(C(F)(F)F)cc3)cncc21 (single isomer, unassigned; (+)) [Example 66, (+)-(R or S)—N-(4-(4-(Trifluoromethyl)phenyl)-6,7-dihydro-5H-cyclopenta[c]pyridin-7-yl)ethanesulfonamide]",6.55,4.85
"CCS(=O)(=O)NC1CCc2c(-c3ccc(C(F)(F)F)c(F)c3)cncc21 (single isomer, unassigned; (+)) [Example 73, (+)-(R or S)—N-(4-(3-Fluoro-4-(trifluoromethyl)phenyl)-6,7-dihydro-5H-cyclopenta[c]pyridin-7-yl)ethanesulfonamide]",7.35,5.73
"OC1CCCc2c(-c3ccc(C(F)(F)F)cc3)cncc21 (single isomer, unassigned; (+)) [Example 106, (+)-(R or S)-4-(4-(Trifluoromethyl)phenyl)-5,6,7,8-tetrahydroisoquinolin-8-ol]",8.34,6.80
"Cc1ccc(C2(O)CCCc3c(-c4ccc(C#N)cc4)cncc32)cc1C (single isomer, unassigned; (-)) [Example 16, (−)-(R or S)-4-(8-(3,4-Dimethylphenyl)-8-hydroxy-5,6,7,8-tetrahydroisoquinolin-4-yl)benzonitrile]",7.14,6.31
"CCC(=O)NC1CCc2c(-c3ccc(C#N)cc3)cncc21 (single isomer, unassigned; (-)) [Example 18, (−)-(S or R)—N-(4-(4-Cyanophenyl)-6,7-dihydro-5H-cyclopenta[c]pyridin-7-yl)propionamide]",6.06,5.14
"CCC(=O)NC1CCCc2c(-c3ccc(Cl)cc3)cncc21 (single isomer, unassigned; (-)) [Example 25, (−)-(S or R)—N-(4-(4-Chlorophenyl)-5,6,7,8-tetrahydroisoquinolin-8-yl)propionamide]",6.33,4.64
"CCC(=O)NC1CCCc2c(-c3ccc(F)c(C)c3)cncc21 (single isomer, unassigned; (-)) [Example 28, (−)-(S or R)—N-(4-(4-Fluoro-3-methylphenyl)-5,6,7,8-tetrahydroisoquinolin-8-yl)propionamide]",6.65,4.52
"CCC(=O)NC1CCCc2c(-c3ccc(C(F)(F)F)cc3F)cncc21 (single isomer, unassigned; (-)) [Example 34, (−)-(S or R)—N-(4-(2-Fluoro-4-(trifluoromethyl)phenyl)-5,6,7,8-tetrahydroisoquinolin-8-yl)propionamide]",5.35,4.37
"CCC(=O)NC1CCCc2c(-c3ccc(Cl)c(F)c3)cncc21 (single isomer, unassigned; (-)) [Example 37, (−)-(S or R)—N-(4-(4-Chloro-3-fluorophenyl)-5,6,7,8-tetrahydroisoquinolin-8-yl)propionamide]",5.90,4.50
"CCC(=O)NC1CCCc2c(-c3ccc(C(F)(F)F)c(F)c3)cncc21 (single isomer, unassigned; (-)) [Example 40, (−)-(S or R)—N-(4-(3-Fluoro-4-(trifluoromethyl)phenyl)-5,6,7,8-tetrahydroisoquinolin-8-yl)propionamide]",5.31,4.49
"C[C@@H](O)C(=O)NC1CCCc2c(-c3ccc(C(F)(F)F)cc3)cncc21 (single isomer, unassigned; (-)) [Example 48, (−)-(R)-2-Hydroxy-N—[(S or R)-4-(4-trifluoromethyl-phenyl)-5,6,7,8-tetrahydro-isoquinolin-8-yl]-propionamide]",7.10,5.68
"CCC(=O)NC1CCc2c(-c3ccc(Cl)c(F)c3)cncc21 (single isomer, unassigned; (-)) [Example 56, (−)-(S or R)—N-(4-(4-Chloro-3-fluorophenyl)-6,7-dihydro-5H-cyclopenta[c]pyridin-7-yl)propionamide]",5.49,4.42
"CCC(=O)NC1CCc2c(-c3ccc(C(F)(F)F)cc3F)cncc21 (single isomer, unassigned; (-)) [Example 62, (−)-(S or R)—N-(4-(2-Fluoro-4-(trifluoromethyl)phenyl)-6,7-dihydro-5H-cyclopenta[c]pyridin-7-yl)propionamide]",5.78,4.83
"CCS(=O)(=O)NC1CCc2c(-c3ccc(C(F)(F)F)cc3)cncc21 (single isomer, unassigned; (-)) [Example 65, (−)-(S or R)—N-(4-(4-(Trifluoromethyl)phenyl)-6,7-dihydro-5H-cyclopenta[c]pyridin-7-yl)ethanesulfonamide]",5.79,5.97
"OC1CCCc2c(-c3ccc(C(F)(F)F)cc3)cncc21 (single isomer, unassigned; (-)) [Example 105, (−)-(S or R)-4-(4-(Trifluoromethyl)phenyl)-5,6,7,8-tetrahydroisoquinolin-8-ol]",6.97,5.78
"C[C@@H](O)C(=O)NC1CCCc2c(-c3ccc(C(F)(F)F)cc3)cncc21 (stereo partly drawn) [Example 46, (R)-2-Hydroxy-N—[(S,R)-4-(4-trifluoromethyl-phenyl)-5,6,7,8-tetrahydro-isoquinolin-8-yl]-propionamide]",6.80,5.43
"C[C@@H](O)C(=O)NC1CCc2c(-c3ccc(C(F)(F)F)cc3)cncc21 (stereo partly drawn) [Example 52, (R)-2-Hydroxy-N—((R,S)-4-(4-(trifluoromethyl)phenyl)-6,7-dihydro-5H-cyclopenta[c]pyridin-7-yl)propanamide]",6.69,5.43
